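Test compounds were applied to cells in 96-well plates for 48 hours at 5 doses. GI50 marks 50% less growth.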 Active and inactive are the calls of the source. Rule as the data show it: active = GI50 up to about 1.1 µM and inactive = higher.
Legend:
Test in all cases: NCI-60 cell line screen, 48 h
SK-MEL-5 = test system: SK-MEL-5
SR = test system: SR
KM-20L2 = test system: KM-20L2
A549 = test system: A549
SF-295 = test system: SF-295
TK-10 = test system: TK-10
HL-60 = test system: HL-60
HOP-92 = test system: HOP-92
U-251 = test system: U-251
CAKI-1 = test system: CAKI-1
MOLT-4 = test system: MOLT-4
NCI-H226 = test system: NCI-H226
EKVX = test system: EKVX
M14 = test system: M14
UACC-62 = test system: UACC-62
UACC-257 = test system: UACC-257
A498 = test system: A498
BT-549 = test system: BT-549
MDA-MB-435 = test system: MDA-MB-435
MDA-MB-231 = test system: MDA-MB-231

Measured: GI50

COc1ccc(C(Cl)=C(c2ccc(OCCN(C)C)cc2)c2ccc(OCCN(C)C)cc2)cc1
inactive: SK-MEL-5 1.73 µM | SR 1.36 µM | KM-20L2 1.36 µM | A549 1.83 µM | SF-295 1.74 µM | TK-10 17.1 µM | HL-60 1.83 µM | HOP-92 2.16 µM | U-251 1.58 µM | CAKI-1 4.6 µM | MOLT-4 1.22 µM | NCI-H226 1.61 µM | EKVX 5.11 µM | M14 1.5 µM | UACC-62 1.7 µM

Cn1c(=O)c2c(nc3n2CCC(=O)N3)n(C)c1=O
inactive: SK-MEL-5 > 100 µM | SR > 100 µM | KM-20L2 > 100 µM | A549 > 100 µM | UACC-257 > 100 µM | SF-295 > 100 µM | TK-10 > 100 µM | HL-60 > 100 µM | HOP-92 > 100 µM | U-251 > 100 µM | CAKI-1 > 100 µM | MOLT-4 > 100 µM | NCI-H226 > 100 µM | EKVX > 100 µM | A498 > 100 µM | UACC-62 > 100 µM

CC(N)Cc1ccc(Cl)cc1 (configuration not stated)
inactive: SK-MEL-5 72.1 µM | SR > 100 µM | KM-20L2 47.2 µM | A549 > 100 µM | UACC-257 > 100 µM | SF-295 47.9 µM | TK-10 > 100 µM | HL-60 37.6 µM | HOP-92 50.8 µM | U-251 > 100 µM | CAKI-1 > 100 µM | MOLT-4 68.9 µM | NCI-H226 > 100 µM | EKVX > 100 µM | A498 > 100 µM | M14 > 100 µM | UACC-62 > 100 µM

COc1cc(C[P+](c2ccccc2)(c2ccccc2)c2ccccc2)cc(OC)c1OC
inactive: SK-MEL-5 > 100 µM | SR > 100 µM | KM-20L2 > 100 µM | A549 > 100 µM | UACC-257 > 100 µM | SF-295 > 100 µM | TK-10 > 100 µM | HL-60 > 100 µM | HOP-92 > 100 µM | U-251 > 100 µM | CAKI-1 > 100 µM | NCI-H226 > 100 µM | EKVX > 100 µM | M14 > 100 µM | UACC-62 > 100 µM

COc1cccc(C(=O)N2CCc3ccccc32)c1OC
inactive: SK-MEL-5 69.8 µM | SR 29.4 µM | KM-20L2 80.2 µM | A549 > 100 µM | UACC-257 53.1 µM | SF-295 38.5 µM | TK-10 57.8 µM | HL-60 27.8 µM | HOP-92 53.5 µM | U-251 52.7 µM | CAKI-1 38.5 µM | MOLT-4 23 µM | NCI-H226 90.6 µM | EKVX > 100 µM | M14 43.6 µM | UACC-62 47 µM

C/C1=C/C2OC(=O)C3(C)C2C(CC2(C)OC1=CC2=O)OC3(O)C(C)C (configuration not stated)
inactive: SK-MEL-5 23.6 µM | SR 22.6 µM | KM-20L2 21.8 µM | A549 > 56 µM | UACC-257 26.9 µM | SF-295 29.4 µM | BT-549 5.2 µM | TK-10 41.5 µM | HL-60 18.7 µM | U-251 23.9 µM | CAKI-1 30.5 µM | MOLT-4 29.4 µM | NCI-H226 33.5 µM | MDA-MB-435 38.3 µM | EKVX 47.6 µM | A498 73.8 µM | M14 37 µM | UACC-62 20.6 µM | MDA-MB-231 > 100 µM

O=C1C=CC2(CCCCCCC2=O)CC1 (configuration not stated)
inactive: SK-MEL-5 > 100 µM | SR > 100 µM | KM-20L2 > 100 µM | A549 > 100 µM | UACC-257 > 100 µM | SF-295 > 100 µM | TK-10 > 100 µM | HL-60 > 100 µM | HOP-92 > 100 µM | U-251 > 100 µM | CAKI-1 > 100 µM | MOLT-4 > 100 µM | NCI-H226 42.6 µM | EKVX > 100 µM | A498 > 100 µM | M14 > 100 µM | UACC-62 > 100 µM

Cc1ccc(C)c(NC(=O)CC/C(=N\NC(=O)c2c(O)ccc3ccccc23)C(C)C(=O)c2ccc(O)cc2)c1 (configuration not stated)
inactive: SK-MEL-5 41.3 µM | SR 27.8 µM | KM-20L2 15.1 µM | A549 65 µM | UACC-257 31.9 µM | SF-295 37.2 µM | TK-10 > 100 µM | HL-60 5.26 µM | HOP-92 46.3 µM | U-251 31.8 µM | CAKI-1 65.2 µM | MOLT-4 27.2 µM | NCI-H226 37.1 µM | A498 60.8 µM | M14 16.9 µM | UACC-62 17.3 µM

CCOC(=O)C(CCC(N)=O)(CCC(=O)OC)C(=O)OCC
inactive: SR > 100 µM | KM-20L2 > 100 µM | A549 > 100 µM | UACC-257 > 100 µM | SF-295 > 100 µM | TK-10 > 100 µM | HL-60 > 100 µM | HOP-92 > 100 µM | U-251 > 100 µM | CAKI-1 > 100 µM | MOLT-4 > 100 µM | NCI-H226 > 100 µM | EKVX > 100 µM | A498 > 100 µM | M14 > 100 µM | UACC-62 > 100 µM

CCCCCCCCC(=O)NCCCNCCCNC(=O)CCCCCCCC
inactive: SK-MEL-5 3.82 µM | SR 2.62 µM | KM-20L2 2.53 µM | A549 14.3 µM | UACC-257 7.1 µM | SF-295 5.65 µM | TK-10 15.1 µM | HL-60 2.11 µM | HOP-92 3.85 µM | U-251 3.25 µM | CAKI-1 13 µM | MOLT-4 3.4 µM | NCI-H226 17.9 µM | EKVX 14.9 µM | A498 16.9 µM | M14 2.07 µM | UACC-62 5.79 µM

O=C(Cc1nc2ccccc2s1)NC12CC3CC(CC(C3)C1)C2
inactive: SR > 100 µM | KM-20L2 > 100 µM | A549 > 100 µM | UACC-257 > 100 µM | SF-295 > 100 µM | TK-10 > 100 µM | HL-60 > 100 µM | HOP-92 > 100 µM | U-251 > 100 µM | CAKI-1 > 100 µM | MOLT-4 > 100 µM | NCI-H226 > 100 µM | EKVX > 100 µM | A498 > 100 µM | M14 > 100 µM | UACC-62 > 100 µM

CCOC(=O)NC(=O)c1cn(CCN2CCN(C(=O)CNC(=O)CNC(=O)Cn3cc(C(=O)NC(=O)OCC)c(=O)[nH]c3=O)CC2)c(=O)[nH]c1=O
inactive: SR > 100 µM | KM-20L2 > 100 µM | A549 > 100 µM | UACC-257 > 100 µM | SF-295 > 100 µM | TK-10 > 100 µM | HL-60 > 100 µM | HOP-92 > 100 µM | U-251 > 100 µM | CAKI-1 > 100 µM | MOLT-4 > 100 µM | A498 > 100 µM | M14 > 100 µM | UACC-62 > 100 µM

O=C(O)/C=C/C(=O)N1C/C(=C\c2ccccc2)C(=O)/C(=C/c2ccccc2)C1
inactive: SK-MEL-5 8.95 µM | SR 3.72 µM | KM-20L2 5.9 µM | A549 21.4 µM | UACC-257 7.18 µM | SF-295 5.01 µM | TK-10 10.3 µM | HL-60 7.96 µM | HOP-92 19.9 µM | U-251 1.87 µM | CAKI-1 15.1 µM | MOLT-4 2.81 µM | NCI-H226 12.4 µM | EKVX 23.5 µM | A498 20.1 µM | M14 3.4 µM | UACC-62 2.97 µM

COc1ccc2c(c1)C(=O)N1CCOC1C2C(=O)O (configuration not stated)
inactive: SK-MEL-5 > 100 µM | SR > 100 µM | KM-20L2 > 100 µM | A549 > 100 µM | UACC-257 > 100 µM | SF-295 4.08 µM | TK-10 > 100 µM | HL-60 > 100 µM | HOP-92 > 100 µM | U-251 > 100 µM | CAKI-1 > 100 µM | MOLT-4 > 100 µM | EKVX > 100 µM | A498 > 100 µM | M14 > 100 µM | UACC-62 > 100 µM

Source: ChEMBL document CHEMBL1201862, “PubChem BioAssay data set” (2004)
